Drawing on patent US5227391A, “Method for treatment of neurodegenerative diseases” (R. J. Reynolds Tobacco Company, priority 1992, dated 1993), this text covers Ki for 1 compound.

This test addresses high affinity nicotinic receptors. Particulars: read-out: Ki (nM), inhibition of L-[3H]nicotine binding; mouse brain membranes (cerebellum removed), 10 nM L-[3H]nicotine, 2 hr at 4° C.; Ki calculated from IC50 by the method of Cheng et al. The procedure:
Mice were killed by cervical dislocation. Brains were removed and placed on an ice-cold platform. […] Prior to each centrifugation step, the suspension was incubated at 37° C. for 5 min. to promote hydrolysis of endogenous acetylcholine. The final pellet was overlayered with buffer and stored at -70° C.
The binding of L-[^3 H]nicotine was measured using a 2 hr. incubation at 4° C. Incubations contained about 500 μg of protein and were conducted in 12 mm×75 mm polypropylene test tubes in a final incubation volume of 250 μl. The incubation buffer was Krebs-Ringers HEPES containing 200 mM TRIS buffer, pH 7.5. The binding reaction was terminated by filtration of the protein containing bound ligand onto glass fiber filters (Micro Filtration Systems) that had been soaked in buffer containing 0.5 percent polyethyleneimine. Filtration vacuum was -50 to -100 torr. Each filter was washed five times with 3 ml of ice-cold buffer. The filtration apparatus was cooled to 2° C. before use and was kept cold through the filtration process. […] The inhibition of L-[^3 H]nicotine binding by test compounds was determined by including one of eight different concentrations of the test compound in the incubation.

Regarding `CN1CCC[C@@H]1c1cccnc1` [(R)-(+)-nicotine], the Ki is 113 nM.

The Ki is the equilibrium dissociation constant of an inhibitor or competing ligand from its target.
